Measured values published in ChEMBL document CHEMBL4706583, “2-Anilinoquinoline based arylamides as broad spectrum anticancer agents with B-RAF/C-RAF kinase inhibitory effects: Design, synthesis, in vitro cell-based and oncogenic kinase assessments” (Eur J Med Chem, 2020).

Legend:
HCT-116 [1] = experiment: Cell cycle arrest in human HCT-116 cells assessed as accumulation at sub-G1 phase at 5 uM measured after 24 hrs by propidium iodide staining based flow cytometry (reference value: 8.7%); format: functional
HCT-116 [2] = experiment: Cell cycle arrest in human HCT-116 cells assessed as accumulation at G2/M phase at 1.25 uM measured after 24 hrs by propidium iodide staining based flow cytometry (reference value: 19.2%); format: functional
HCT-116 [3] = experiment: Cell cycle arrest in human HCT-116 cells assessed as accumulation at G1/G0 phase at 2.5 uM measured after 24 hrs by propidium iodide staining based flow cytometry (reference value: 65%); format: functional
HCT-116 [4] = experiment: Cell cycle arrest in human HCT-116 cells assessed as accumulation at S phase at 1.25 uM measured after 24 hrs by propidium iodide staining based flow cytometry (reference value: 7.2%); format: functional
HCT-116 [5] = experiment: Cell cycle arrest in human HCT-116 cells assessed as accumulation at G1/G0 phase at 5 uM measured after 48 hrs by propidium iodide staining based flow cytometry (reference value: 52.2%); format: functional
HCT-116 [6] = experiment: Cell cycle arrest in human HCT-116 cells assessed as accumulation at sub-G1 phase at 2.5 uM measured after 48 hrs by propidium iodide staining based flow cytometry (reference value: 17%); format: functional
HCT-116 [7] = experiment: Cell cycle arrest in human HCT-116 cells assessed as accumulation at S phase at 2.5 uM measured after 48 hrs by propidium iodide staining based flow cytometry (reference value: 10.4%); format: functional
HCT-116 [8] = experiment: Cell cycle arrest in human HCT-116 cells assessed as accumulation at G2/M phase at 5 uM measured after 48 hrs by propidium iodide staining based flow cytometry (reference value: 20.4%); format: functional
HCT-116 [9] = experiment: Cell cycle arrest in human HCT-116 cells assessed as accumulation at S phase at 5 uM measured after 48 hrs by propidium iodide staining based flow cytometry (reference value: 10.4%); format: functional
HCT-116 [10] = experiment: Cell cycle arrest in human HCT-116 cells assessed as accumulation at S phase at 1.25 uM measured after 48 hrs by propidium iodide staining based flow cytometry (reference value: 10.4%); format: functional
[11] = biological target: Epithelial discoidin domain-containing receptor 1 (Homo sapiens, UniProt Q08345); experiment: Inhibition of human DDR1 at 10 uM using KKSRGDYMTMQIG as substrate in presence of [gamma-33P]ATP by scintillation counting method relative to control
HCT-116 [12] = experiment: Cell cycle arrest in human HCT-116 cells assessed as accumulation at G1/G0 phase at 1.25 uM measured after 48 hrs by propidium iodide staining based flow cytometry (reference value: 52.2%); format: functional

Epithelial discoidin domain-containing receptor 1, sequence (Q08345 whole entry, the tested form may be a part): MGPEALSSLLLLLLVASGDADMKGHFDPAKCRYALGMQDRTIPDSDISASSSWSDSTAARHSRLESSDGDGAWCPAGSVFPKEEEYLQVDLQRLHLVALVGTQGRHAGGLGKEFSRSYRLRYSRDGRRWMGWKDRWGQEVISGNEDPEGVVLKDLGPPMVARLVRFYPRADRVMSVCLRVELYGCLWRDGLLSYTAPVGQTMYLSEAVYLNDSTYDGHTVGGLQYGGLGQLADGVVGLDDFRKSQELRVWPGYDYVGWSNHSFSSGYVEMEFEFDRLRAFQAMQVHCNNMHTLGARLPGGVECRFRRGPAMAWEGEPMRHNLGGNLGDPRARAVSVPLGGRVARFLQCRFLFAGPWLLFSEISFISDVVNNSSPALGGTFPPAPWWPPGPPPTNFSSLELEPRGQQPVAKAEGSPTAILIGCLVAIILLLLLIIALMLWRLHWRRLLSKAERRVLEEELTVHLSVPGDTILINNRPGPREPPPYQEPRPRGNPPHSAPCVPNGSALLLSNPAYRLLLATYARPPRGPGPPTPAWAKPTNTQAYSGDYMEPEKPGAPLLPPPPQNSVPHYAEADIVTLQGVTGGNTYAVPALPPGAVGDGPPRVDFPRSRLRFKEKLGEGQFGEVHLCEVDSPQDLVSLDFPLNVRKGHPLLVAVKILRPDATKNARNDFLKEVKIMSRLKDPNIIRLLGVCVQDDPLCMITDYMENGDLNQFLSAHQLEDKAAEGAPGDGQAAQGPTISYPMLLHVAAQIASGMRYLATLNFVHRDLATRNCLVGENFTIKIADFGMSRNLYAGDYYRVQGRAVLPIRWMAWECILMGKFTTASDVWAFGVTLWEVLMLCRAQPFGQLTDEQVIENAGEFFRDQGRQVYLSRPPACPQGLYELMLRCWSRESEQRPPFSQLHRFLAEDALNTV

| SMILES | Activity (HCT-116 [1]) | Activity (HCT-116 [2]) | Activity (HCT-116 [3]) | Activity (HCT-116 [4]) | Activity (HCT-116 [5]) | Activity (HCT-116 [6]) | Activity (HCT-116 [7]) | Activity (HCT-116 [8]) | Activity (HCT-116 [9]) | Activity (HCT-116 [10]) | inhibition [11] | Activity (HCT-116 [12]) |
| --- | --- | --- | --- | --- | --- | --- | --- | --- | --- | --- | --- | --- |
| COc1cccc2nc(Nc3cccc(NC(=O)c4ccc(N5CCN(C)CC5)c(C(F)(F)F)c4)c3)ccc12 | 9.1% | 15.6% | 69.7% | 8.2% | – | – | – | – | – | – | – | – |
| CCN1CCN(c2cc(C(=O)Nc3cccc(Nc4ccc5c(OC)cccc5n4)c3)cc(C(F)(F)F)c2)CC1 | – | – | – | – | 64.1% | 20.9% | 9.2% | 14.4% | 7.4% | 8.8% | 94.5% | 54.7% |
